Experimental findings from paper PMC5289647, “L-glutamine Induces Expression of Listeria monocytogenes Virulence Genes” (PLoS Pathogens, 2017) are described below.

Each structure is given as a SMILES string. pKd: −log10 of the molar value.

For assay [1], the target named is T1, SBP domain of LMRG_02270 (GlnPQ SBP; GlnP) (Listeria monocytogenes, UniProt A0A0H3GES4).
T1 construct: SBP domain only (residues 29-254), signal peptide (first 28 residues) and transmembrane domain removed; N-terminal His-tag (pET-19b), codon-optimised synthetic gene; E. coli BL21-Gold (DE3); locus also printed as LMRG_02770 (apparent misprint)
T1 sequence (A0A0H3GES4 entry or part of it): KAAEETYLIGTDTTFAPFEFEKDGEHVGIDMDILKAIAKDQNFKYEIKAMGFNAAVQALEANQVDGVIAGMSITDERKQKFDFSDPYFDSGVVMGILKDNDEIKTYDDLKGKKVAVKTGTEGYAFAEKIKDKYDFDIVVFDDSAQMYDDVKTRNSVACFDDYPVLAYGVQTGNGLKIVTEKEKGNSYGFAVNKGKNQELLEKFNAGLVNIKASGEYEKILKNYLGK
The assay is described as follows: isothermal titration calorimetry. In kind it is binding. In general terms: Isothermal titration calorimetry measures the heat released or taken up as one component is titrated into another.

The next assay deals with T2, GlnPQ (Listeria monocytogenes, UniProt A0A0H3GES4).
T2 construct: gene LMRG_02270; native full-length ABC importer in L. monocytogenes cells; uptake compared with glnPQ deletion and complemented strains; glnP locus also printed as LMRG_02770 (apparent misprint)
T2 sequence (A0A0H3GES4 entry or part of it): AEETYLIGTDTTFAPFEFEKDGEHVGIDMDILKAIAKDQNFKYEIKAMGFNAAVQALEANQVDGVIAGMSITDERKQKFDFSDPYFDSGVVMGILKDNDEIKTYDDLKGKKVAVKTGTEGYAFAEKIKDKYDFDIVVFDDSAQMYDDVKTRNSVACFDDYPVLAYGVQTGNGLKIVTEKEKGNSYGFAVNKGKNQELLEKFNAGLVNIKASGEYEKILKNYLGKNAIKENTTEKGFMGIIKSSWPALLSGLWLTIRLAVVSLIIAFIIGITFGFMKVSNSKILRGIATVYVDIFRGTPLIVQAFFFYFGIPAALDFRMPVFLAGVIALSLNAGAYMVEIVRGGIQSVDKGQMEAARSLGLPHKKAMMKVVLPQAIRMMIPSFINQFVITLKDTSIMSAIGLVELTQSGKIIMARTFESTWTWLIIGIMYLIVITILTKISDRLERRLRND
T2 sequence (A0A0H3GF44 entry or part of it, further chain): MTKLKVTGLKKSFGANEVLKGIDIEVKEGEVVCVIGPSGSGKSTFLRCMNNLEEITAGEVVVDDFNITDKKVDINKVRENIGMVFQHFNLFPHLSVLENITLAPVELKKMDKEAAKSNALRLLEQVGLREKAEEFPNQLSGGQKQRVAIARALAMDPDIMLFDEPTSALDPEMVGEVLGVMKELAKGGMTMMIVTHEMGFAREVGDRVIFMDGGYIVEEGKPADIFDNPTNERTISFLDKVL
Briefly: radiolabelled uptake by intact bacteria, rapid filtration. In kind it is cell-based. The following applies: PBS pH 7.4, 1.6 mM MgSO4, 1% glucose, 37 °C; labelled compound; mixed with unlabelled L-glutamine.

For orientation: pKd means −log10 of the Kd, conventionally taken in molar units. High values mean a low Kd, low ones a high Kd. `NC(=O)CC[C@H](N)C(=O)O` [L-glutamine] showed a pKd in assay [1] of 5.33.

In the case of `NC(=O)CC[C@H](N)C(=O)O` [3H L-glutamine], at GlnPQ, the L-glutamine uptake entry was “the rapid uptake of L-glutamine measured in the transport experiments is indeed mediated by an active”.
